Experimental data published in patent US6933310B1, “Therapeutic agent for amyotrophic lateral sclerosis (ALS)” (Mitsubishi Pharma Corporation, priority 2000, dated 2005).

What was measured:
ALS = details: some reported test results; cited from earlier work
ALS patients = details: administered intraspinally to ALS patients; cited from earlier work
Wobbler mice [1] = assay: Number of spinal motor neurons in Wobbler mice; format: in vivo, mouse; details: 10 mg/kg orally, 4 weeks, cervical spinal cord C5-6, vs control group (FIG. 4)
Source text: (§1) Wobbler mice (Ikeda K. et al., Ann. Neurol. vol. 34, p304, 1993; Mitsumoto H. et al., Ann. Neurol. vol. 36, pp142 to 148, 1994; Mitsumoto H. et al., Science, vol. 265, pp1107 to 1110, 1994) were used.
(§2) At 3 to 4 weeks old, with the development of the symptom of body tremors, Wobbler mice were diagnosed with the onset of the disease. Immediately after being diagnosed to have the beginnings of the disease, the mice were orally administered with the drug of the present invention (3-methyl-1-phenyl-2-pirazoline-5-on; also referred to as MCI-186 in the drawings) (10 mg/kg), and the mice of a control group were administered with vehicles, by a blind test continually for 4 weeks. The administration of the drug was completed at 7 to 8 weeks old after birth, and the test was conducted with n=10 for each test group.
Wobbler mice (n=10 per group) that had been used for morphological study on the right brachial biceps muscles were perfused via an intracardiac catheter with phosphate buffered saline, and then 4% paraformaldehyde/1% glutaraldehyde/0.1 M sodium phosphate buffer (pH 7.4). […]
(§3) The scale of the degree of forelimb deformity was analyzed by the non-parametric Wilcoxon signed rank-sum test. Muscle strength, weight of biceps muscle, mean diameter of muscle fibers and number of motor neurons were statistically analyzed by unpaired Student's t-test. […]

mouse = details: intraabdominal administration; cited from earlier work
Wobbler mice [2] = assay: Forelimb deformity grading in Wobbler mice; format: in vivo, mouse; details: 10 mg/kg orally, 4 weeks, vs control group (FIG. 1)
Source text: as §1, §2
The degree of forelimb deformity was classified into four grades: 1 (paw atrophy), 2 (curled digits), 3 (curled wrists), and 4 (forelimb flexion to chest), and then evaluated. The progress from 1 to 4 means that the symptom became worse.
The scale of the degree of forelimb deformity was analyzed by the non-parametric Wilcoxon signed rank-sum test. Muscle strength, weight of biceps muscle, mean diameter of muscle fibers and number of motor neurons were statistically analyzed by unpaired Student's t-test. In all tests, the significance level of 5% was set for both sides.

[3] = National Cancer Institute Report, 89, 1978; cited from earlier work
Wobbler mice [4] = assay: Weight and morphology of right brachial biceps muscle in Wobbler mice; format: in vivo, mouse; details: 10 mg/kg orally, 4 weeks
Source text: as §1, §2
After the end of drug administration, Wobbler mice (n=10 per group) were ether anesthetized, and then the right brachial biceps muscles were excised under dissecting microscope. The excised biceps muscles were correctly measured, and then frozen. […]
as §3

Wobbler mice [5] = assay: Forelimb grip strength in Wobbler mice; format: in vivo, mouse; details: 10 mg/kg orally, 4 weeks, vs control group (FIG. 2)
Source text: as §1
At 3 to 4 weeks old, with the development of the symptom of body tremors, Wobbler mice were diagnosed with the onset of the disease. Immediately after being diagnosed to have the beginnings of the disease, the mice were orally administered with the drug of the present invention (3-methyl-1-phenyl-2-pirazoline-5-on; also referred to as MCI-186 in the drawings) (10 mg/kg), and the mice of a control group were administered with vehicles, by a blind test continually for 4 weeks. […]
The grip strength of the forelimb was measured (Ikeda et al., Neuromusc. Disord., 5, (1995), 383–390; K. Ikeda et al., J. Neurol. Sci., 160, (1998) 9–15; K. Ikeda et al., Neurosci. Lett., 250 (1998) 9–12; K. Ikeda et al., Muscle Nerve, 18 (1995) 1344–1347; K. Ikeda et al., Neurol. Res., 17 (1995) 445–448; K. Ikeda et al., Ann. Neurol., 37 (1995) 505–511; K. Ikeda et al., Brain Res., 726 (1996) 91–97; H. Mitsumoto et al., Ann. Neurol., 36 (1994) 142–148; and H. Mitsumoto et al., Science, 265 (1994) 1107–1110). […]
The scale of the degree of forelimb deformity was analyzed by the non-parametric Wilcoxon signed rank-sum test. […]

Question: Which “effectiveness against ALS” value (ALS) does the source give for `Nc1nc2ccc(OC(F)(F)F)cc2s1` [riluzole] here?
Answer: effectiveness against ALS could not be confirmed

Question: For “human recombinant Cu/Zn SOD: human recombinant Cu/Zn superoxide dismutase administered intraspinally to ALS patients”, which “therapeutic effect in ALS patients” value (ALS patients) is on record?
Answer: effective therapeutic effects were not obtained

Question: Which results are given for `CC1=NN(c2ccccc2)C(=O)C1` [3-methyl-1-phenyl-2-pirazoline-5-on]?
Answer: number of spinal motor neurons (Wobbler mice [1]): increased; LD50 (mouse): 2012 mg/kg; degree of forelimb deformity (Grades 1 to 4) (Wobbler mice [2]): the progress of muscle deformity was delayed; carcinogenicity [3]: noncarcinogenicity; mean diameter of muscle fibers (mean±SEM) (Wobbler mice [4]; right brachial biceps, P<0.01 vs control 16.8±0.6 μm): 20.3±0.8 μm; weight of the right brachial biceps muscle (Wobbler mice [4]; vs control group (FIG. 3)): significantly increased; muscle strength of the forelimb (grip strength) (Wobbler mice [5]): the decrease in muscle strength was delayed
